Source: publication PMC6471591, “Preparation of Sesquiterpene Lactone Derivatives: Cytotoxic Activity and Selectivity of Action” (Molecules, 2019)
Like-named read-outs stand apart in the source and are kept apart here.

How the values were obtained:
A549 cells [1] = test: Antiproliferative SRB assay (NCI protocol), 48 h; format: cell-based; details: Homo sapiens; A549 (lung), SRB, 48 h drug exposure; read-out: 50% growth inhibition (GI50) ± SD, A549
Procedure: (§1) In vitro antiproliferative activity was evaluated using the protocol of the National Cancer Institute (NCI) after 48 h of drug exposure using the sulforhodamine B (SRB) assay. […] We cannot discard that increasing lipophilicity may well result in an increase in cytotoxicity in vitro.
(§2) The following human solid tumor cell lines were used in this study: HBL-100 (breast), HeLa (cervix), SW1573 (non-small cell lung), T-47D (breast), A549 (lung), and WiDr (colon). Cells were maintained in 25 cm^2 culture flasks in RPMI 1640 supplemented with 5% heat-inactivated fetal calf serum and 2 mM L-glutamine in a 37 °C, 5% CO2, 95% humidified air incubator. Exponentially growing cells were trypsinized and resuspended in antibiotic containing medium (100 units penicillin G and 0.1 mg of streptomycin per mL). Single-cell suspensions displaying >97% viability by trypan blue dye exclusion test were subsequently counted. After counting, dilutions were made to give the appropriate cell densities for inoculation onto 96-well microtiter plates. Cells were inoculated in a volume of 100 μL per well at densities of 20,000 (WiDr), 15,000 (T-47D and A549), and 10,000 (HeLa, SW1573, and HBL-100) cells per well, based on their doubling times.
(§3) Chemosensitivity tests were performed using the SRB assay of the NCI with slight modifications. Briefly, pure compounds were initially dissolved in DMSO at 400 times the desired final maximum test concentration. Control cells were exposed to an equivalent concentration of DMSO (0.25% v/v, negative control). Each agent was tested in triplicate at different dilutions in the range 1–100 μM. Drug treatment started on day 1 after plating. Drug incubation periods were 48 h, after which cells were precipitated with 25 μL of ice-cold 50% (w/v) trichloroacetic acid and fixed for 60 min at 4 °C. Then, the SRB assay was performed. Optical density (OD) of each well was measured at 492 nm, using BioTek’s PowerWave XS Absorbance Microplate Reader (Highland Park, Winooski, VT, USA). Values were corrected for background OD from wells containing only culture medium. The percentage growth (PG) was calculated with respect to untreated control cells (C) at each level of drug concentrations based on the difference in OD at the start time (T0) and at the end of drug exposure (T), according to NCI formulas. Therefore, if T is greater than or equal to T0, the calculation is 100 × [(T–T0)/(C–T0)]. If T is lower than T0, denoting cell death, the calculation is 100 × [(T–T0)/(T0)]. The effect is defined as the growth percentage, where 50% growth inhibition (GI50) represents the concentration at which PG is +50. Based on these calculations, a PG value of 0 corresponds to the number of cells present at the beginning of drug exposure, while negative PG values denote net cell death.

HBL100 cells [2] = test: Antiproliferative SRB assay (NCI protocol), 48 h; format: cell-based; details: Homo sapiens, HBL-100; HBL100 (breast), SRB, 48 h drug exposure; read-out: 50% growth inhibition (GI50) ± SD, HBL100
Procedure: as §1, §2, §3

HeLa cells [3] = test: Antiproliferative SRB assay (NCI protocol), 48 h; format: cell-based; details: Homo sapiens; HeLa (cervix), SRB, 48 h drug exposure; read-out: 50% growth inhibition (GI50) ± SD, HeLa
Procedure: as §1, §2, §3

SW1573 cells = test: Antiproliferative SRB assay (NCI protocol), 48 h; format: cell-based, human; details: for GI50: Homo sapiens, SW1573 (non-small cell lung), SRB, 48 h drug exposure, read-out: 50% growth inhibition (GI50) ± SD, SW1573; for Selectivity Index, SW1573: splenocyte CC50 versus SW1573 GI50
Procedure: as §1, §2, §3

T47-D cells = test: Antiproliferative SRB assay (NCI protocol), 48 h; format: cell-based, human; details: for GI50: Homo sapiens, T47D, T47-D (breast), SRB, 48 h drug exposure, read-out: 50% growth inhibition (GI50) ± SD, T47-D; for Selectivity Index, T47-D: splenocyte CC50 versus T47-D GI50
Procedure: as §1, §2, §3

WiDr cells = test: Antiproliferative SRB assay (NCI protocol), 48 h; format: cell-based, human; details: for GI50: Homo sapiens, WiDr (colon), SRB, 48 h drug exposure, read-out: 50% growth inhibition (GI50) ± SD, WiDr; for Selectivity Index, WiDr: splenocyte CC50 versus WiDr GI50
Procedure: as §1, §2, §3

[4] = Cytotoxicity on primary cell culture (propidium iodide, flow cytometry); format: cell-based
Procedure: The cytotoxicity of the sesquiterpene lactones and its derivatives was evaluated using mouse splenocytes. […] Cumanin derivatives (4–11) have shown CC50 values and selectivity indexes higher than natural compound 1. […] The incorporation of two triazole groups in cumanin (1) reduced cytotoxicity on normal cells and improved selectivity against tumor cell lines.
In a 96-well plate, spleen cells from Balb/c mouse (1.5 × 10^5) were incubated with different drug dilutions (200, 100, 50, 10, and 5 μg/mL) in RPMI medium containing 10% fetal calf serum. After 48 h of incubation at 37 °C (5% CO2), cells were harvested, washed once with PBS, and stained with 2.5 μg/mL propidium iodide (PI) for 5 min at room temperature. Subsequently, cell death was assessed by flow cytometry using a BD FACSaria II cytometer. Cells incubated only with a drug vehicle were used as a 100% viability control and death percentage was calculated according to the following formula: Death(%)=[1−(%PI^−cells)drug−treated/(%PI^−cells)100% viability control]×100.
Then the concentration capable of causing cell death in 50% of splenocytes (CC50) was determined using a non-linear regression approach.

[5] = tested on: human solid tumor cell lines (A549, HBL-100, HeLa, SW1573, T-47D, WiDr); test: Antiproliferative SRB assay, whole panel of tumor cell lines; format: cell-based; details: for GI50: Homo sapiens, all tested tumor cell lines, SRB, 48 h, read-out: GI50 values, range over all tested cell lines; for antiproliferative activity in words: tumor cell line panel, compared to cumanin (1)
Procedure: as §1, §2, §3

A549 cells [6] = test: Antiproliferative SRB assay (NCI protocol), 48 h; format: cell-based, human; details: splenocyte CC50 versus A549 GI50
HBL100 cells [7] = test: Antiproliferative SRB assay (NCI protocol), 48 h; format: cell-based, human; details: splenocyte CC50 versus HBL100 GI50
HeLa cells [8] = test: Antiproliferative SRB assay (NCI protocol), 48 h; format: cell-based, human; details: splenocyte CC50 versus HeLa GI50

Row | Compound | GI50 (A549 cells [1]) [µM] | GI50 (HBL100 cells [2]) [µM] | GI50 (HeLa cells [3]) [µM] | GI50 (SW1573 cells) [µM] | Selectivity Index, SW1573 (SW1573 cells) | GI50 (T47-D cells) [µM] | Selectivity Index, T47-D (T47-D cells) | GI50 (WiDr cells) [µM] | Selectivity Index, WiDr (WiDr cells) | CC50 at 48 h ([4]; Balb/c, mouse) [µM] | GI50 [5] [µM] | Selectivity Index, A549 (A549 cells [6]) | Selectivity Index, HBL100 (HBL100 cells [7]) | Selectivity Index, HeLa (HeLa cells [8]) | antiproliferative activity in words [5] | CC50 at 48 h ([4]; primary mouse splenocytes (spleen cells), Balb/c mouse spleen cells, 48 h incubation, PI staining, read-out: CC50 ± SD, splenocytes (concentration that causes 50% cell death)) [µM]
1 | C=C1C(=O)O[C@@H]2C[C@@H](C)[C@@H]3C=CC(=O)[C@@]3(C)[C@@H](O[Si](C)(C)C(C)C)[C@H]12 [Compound 14] | 0.28 | 0.2 | 0.15 | 0.19 | 7.4 | 0.36 | 3.9 | 0.26 | 5.4 | 1.4 | 0.15 to 0.59 | 5.0 | 7.0 | 9.3 | – | –
2 | C=C1C(=O)O[C@@H]2C[C@H](C)[C@@H]3C[C@H](OC(C)=O)[C@H](OC(C)=O)[C@@]3(C)C[C@H]12 [Compound 4] | 24 | 23 | 16 | 11 | 21.9 | 26 | 9.3 | 27 | 8.9 | – | – | 10.0 | 10.5 | 15.0 | moderate activity | –
3 | C#CCOC1CC2C(C)CC3OC(=O)C(=C)C3CC2(C)C1OCC#C (stereo not shown) [Compound 9] | 17 | 19 | 24 | 20 | 4.7 | 24 | 3.9 | 2.1 | 44.5 | – | – | 5.5 | 4.9 | 3.9 | moderate activity | –
4 | C=C1C(=O)O[C@@H]2[C@H]1CC[C@H](C)[C@@]1(O)C=CC(=O)[C@@]21C [Compound 3, hymenin] | 9.7 | 17 | 14 | 6.4 | 0.7 | 20 | 0.2 | 18 | 0.2 | 4.4 | – | 0.4 | 0.3 | 0.3 | – | –
5 | C#CCOC1CC2C(C)CC3OC(=O)C(=C)C3CC2(C)C1O (stereo not shown) [Compound 8] | 18 | 17 | 19 | 28 | 6.4 | 24 | 7.5 | 7.2 | 25.1 | – | – | 10.0 | 10.6 | 9.5 | moderate activity | –
6 | C=C1C(=O)OC2CC(C)C3CC(OCc4cn(Cc5ccccc5)nn4)C(O)C3(C)CC12 (stereo not shown) [Compound 10] | 18 | 29 | 32 | 32 | 3.5 | 37 | 3.1 | 30 | 3.8 | – | – | 6.3 | 3.9 | 3.5 | moderate activity | 114
7 | C=C1C(=O)O[C@@H]2C[C@@H](C)[C@@H]3C=CC(=O)[C@@]3(C)[C@@H](O[Si](C)(C)C)[C@H]12 [Compound 13] | 0.59 | 0.36 | 0.19 | 0.28 | 3.9 | 0.29 | 3.8 | 0.56 | 2.0 | 1.1 | 0.15 to 0.59 | 1.9 | 3.0 | 5.8 | – | –
